Experimental data taken from paper PMC11378297, “Discovery and Profiling of New Multimodal Phenylglycinamide Derivatives as Potent Antiseizure and Antinociceptive Drug Candidates” (ACS Chemical Neuroscience, 2024).

What was measured:
[1] = test system: maximal electroshock (MES) seizures, mice; conditions: reference ASMs, i.p., pretreatment time 0.5 h (LCS, VPA) or 1.0 h (LEV, CBD), literature or own experiments; cited from earlier work
[2] = test system: 6 Hz (32 mA) seizures, mice; conditions: reference ASMs, i.p., pretreatment time 0.5 h (LCS, VPA) or 1.0 h (LEV, CBD); cited from earlier work
[3] = test system: 6 Hz (44 mA) seizures, mice; conditions: reference ASMs, i.p., pretreatment time 0.5 h (LCS, VPA) or 1.0 h (LEV, CBD); cited from earlier work
body temperature, mice = assay: capsaicin-induced hypothermia test / rectal temperature; format: in vivo, mouse
Method: In this study, we used the capsaicin-induced hypothermia model in mice to evaluate the effect of eutomers (R)-31, (R)-32, and (R)-33 on body temperature and to provide more data related to their on-target activity (i.e., antagonism of TRPV1) (Figure S5A–D). Capsaicin given i.p. at a dose of 5 mg/kg produced a marked decrease in rectal temperature at 15 min post injection (p < 0.0001). The temperature returned to normal values within 30–60 min after capsaicin injection. […] None of the tested compounds reversed the capsaicin-induced hypothermia.
The changes in body temperature in the capsaicin-induced hypothermia model were evaluated as described previously. Eutomers (R)-31, (R)-32, and (R)-33 were suspended in a 1% Tween 80 and administered i.p. 15 min before injection of capsaicin (5 mg/kg, i.p.). The corresponding vehicles (1% DMSO or 1% Tween 80) were given to the control animals. Using an electronic thermometer (ThermoWorks, Alpine, Utah, USA), changes in the mouse’s rectal temperature were recorded by inserting the rectal probe approximately 2 cm into the mouse’s rectum. After −15, 0, 15, 30, 60, 90, 120, and 180 min, the measurements were collected. Subsequently, the variations in rectal temperature between the baseline ([…] for the groups receiving compounds and BCTC in conjunction with the vehicle, or […] for the groups receiving the vehicle, compounds, and BCTC in combination with the capsaicin) and the corresponding time point ΔT (°C) were computed and examined.
Figure S5. Acute effects of BCTC (A), (R)-31 (B), (R)-32 (C), and (R)-33 (D) on rectal temperature in the capsaicin-induced test in mice. Capsaicin (CPS) or vehicle (1% DMSO) were injected i.p. at 0 min, as indicated by the arrows.
BCTC, (R)-31, (R)-32, and (R)-33 were suspended in 1% Tween 80 and administered i.p. 15 min before CPS or vehicle injection. The temperature was measured at -15, 0, 15, 30, 60, 90, 120, and 180 min. Since body temperature returned to control values 60 min after CPS injection, subsequent measurements are not shown.
Data are presented as the mean differences (ΔT) in rectal temperature from 0 to -15 min (time point 0 min), from 15 to 0 min (time point 15 min), from 30 to 0 min (time point 30 min), and from 60 to 0 min (time point 60 min); n = 6–8 animals/group. Statistical significance was evaluated using one-way ANOVA with Tukey’s post hoc test: […]
(1 picture or pasted object on this page, not shown here)

[4] = PAMPA (Precoated PAMPA Plate System Gentest) passive permeability; format: in vitro ADME; conditions: passive blood–brain barrier permeability model
TRPV1 (VR1) (h) = biological target: T1, TRPV1 (VR1) (h) (Homo sapiens, UniProt Q8NER1); assay: TRPV1 (VR1) (h) (antagonist effect); format: cell-based; conditions: 100 µM, human recombinant CHO cells; read-out: % Inhibition of control specific binding (functional study, antagonist effect)
T1 construct: host or cells: CHO cells
Method: (§1) Further in vitro functional studies confirmed TRPV1 antagonist activity for (R)-31–(R)-33.
(§2) Using previously described testing methodologies, binding/functional tests were conducted on a commercial basis at Eurofins Laboratories (Poitiers, France) and Eurofins Panlabs Discovery Services Taiwan, Ltd. (New Taipei City, Taiwan); see Table S9 for more information.
(§3) Table S9. Radioligand binding and functional assays. […]
TRPV1 (VR1) (h) (antagonist effect) […]
(§4) Assays were performed commercially in Eurofins Laboratories (Poitiers, France) or Eurofins Panlabs Discovery Services
(§5) Taiwan, Ltd. (New Taipei City, Taiwan).

Na+ channel (site 2) = Na+ channel (site 2) radioligand binding; conditions: 100 µM, rat cerebral cortex
Method: The current body of literature consistently reports that both sodium (Navx) and Cav1.2 calcium ion channels can be involved in the pathogenesis of epilepsy[67]−[69] and neuropathic pain.[70]−[73] […] Therefore, we performed binding and functional studies toward sodium (site 2) and calcium Cav1.2 channels at concentrations of 10 μM for (R)-31−(R)-33.
as §2, §3, §4, §5

CB1 (h) = biological target: T2, CB1 (h) (Homo sapiens, UniProt P21554); assay: CB1 (h) (agonist effect); format: cell-based; conditions: human recombinant CHO cells, read-out: % Inhibition of control specific binding (functional study, agonist effect)
T2 construct: host or cells: CHO cells
Method: as §1
(§6) Table S2. In vitro TRPV1 channel antagonist activity for compounds 3–12 (series A), 21–24 (series B) in […]
(§7) Cmpd % Inhibition of control Cmpd % Inhibition of control agonist responsea agonist responsea
(§8) *Source: human recombinant CHO cells. a Results showing activity higher than 50% are considered to represent significant […]
(§9) around the control level. Assays were performed commercially in Eurofins Laboratories (Poitiers, France).
(§10) Binding studies Source % Inhibition of control specific binding […]
(§11) Na+ channel (site 2) Rat cerebral 94.9 (100)
(§12) Cav1.2 (dihydropyridine Rat cerebral 58.0 (100) site, antagonist radioligand) cortex
(§13) Functional studies Source % Inhibition of control specific binding […]
(§14) (antagonist effect) CHO cells
(§15) (agonist effect) CHO cells
(§16) Table S9. Radioligand binding and functional assays.
(§17) Cav1.2 (L-type) (h) calcium ion channel cell-based antagonist calcium flux assay TRPV1 (VR1) (h) (antagonist effect)
(§18) TRPA1 (h) transient potential ion channel cell based antagonist calcium flux assay TRPM8 (h) (antagonist effect)
(§19) Cav1.2 (L-type) (dihydropyridine site, antagonist radioligand) […]
(§20) Assays were performed commercially in Eurofins Laboratories (Poitiers, France) or Eurofins Panlabs Discovery Services Taiwan, Ltd. (New Taipei City, Taiwan).

[5] = test system: Cav1.2 (dihydropyridine site); assay: Cav1.2 (dihydropyridine site, antagonist radioligand) binding; conditions: 100 µM, rat cerebral cortex
Method: as §1, §6, §7, §8, §9, §10, §11, §12, §13, §14, §15, §16, §17, §18, §19, §20

T2 sequence (P21554 whole entry): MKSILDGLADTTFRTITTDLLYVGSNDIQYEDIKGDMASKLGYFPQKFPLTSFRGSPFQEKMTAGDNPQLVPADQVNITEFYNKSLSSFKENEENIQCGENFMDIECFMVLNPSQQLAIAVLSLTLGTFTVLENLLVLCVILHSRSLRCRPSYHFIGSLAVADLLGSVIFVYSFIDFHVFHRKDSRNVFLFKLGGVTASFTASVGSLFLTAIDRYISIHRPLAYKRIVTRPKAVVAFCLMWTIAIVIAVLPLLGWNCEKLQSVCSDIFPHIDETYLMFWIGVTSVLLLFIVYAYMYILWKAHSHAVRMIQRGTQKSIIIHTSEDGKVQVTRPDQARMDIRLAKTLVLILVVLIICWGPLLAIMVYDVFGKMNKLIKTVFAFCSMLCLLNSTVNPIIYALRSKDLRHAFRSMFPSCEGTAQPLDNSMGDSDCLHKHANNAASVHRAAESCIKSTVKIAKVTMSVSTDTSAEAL
T1 sequence (Q8NER1 whole entry): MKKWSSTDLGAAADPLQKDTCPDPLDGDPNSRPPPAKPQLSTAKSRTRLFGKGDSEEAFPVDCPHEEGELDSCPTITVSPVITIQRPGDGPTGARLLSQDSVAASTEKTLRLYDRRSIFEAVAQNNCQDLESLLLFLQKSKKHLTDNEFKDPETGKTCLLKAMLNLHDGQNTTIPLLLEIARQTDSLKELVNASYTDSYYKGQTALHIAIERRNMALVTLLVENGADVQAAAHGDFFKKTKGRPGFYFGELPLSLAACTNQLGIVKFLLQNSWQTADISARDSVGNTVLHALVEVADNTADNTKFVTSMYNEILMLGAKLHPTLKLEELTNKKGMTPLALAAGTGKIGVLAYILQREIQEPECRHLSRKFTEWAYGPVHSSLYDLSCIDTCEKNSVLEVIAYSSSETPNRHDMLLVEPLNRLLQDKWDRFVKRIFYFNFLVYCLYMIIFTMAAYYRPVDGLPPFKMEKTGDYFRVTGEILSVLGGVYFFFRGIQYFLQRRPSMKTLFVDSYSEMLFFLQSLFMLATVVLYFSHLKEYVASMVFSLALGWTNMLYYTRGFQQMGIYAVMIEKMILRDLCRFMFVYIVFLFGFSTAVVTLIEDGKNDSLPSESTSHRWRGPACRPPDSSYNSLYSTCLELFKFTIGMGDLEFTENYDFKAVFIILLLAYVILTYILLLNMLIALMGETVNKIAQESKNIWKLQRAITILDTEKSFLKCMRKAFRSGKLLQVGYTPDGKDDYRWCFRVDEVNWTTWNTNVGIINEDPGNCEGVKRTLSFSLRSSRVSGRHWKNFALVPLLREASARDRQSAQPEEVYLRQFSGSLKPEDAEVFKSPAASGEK

COC[C@@H](NC(C)=O)C(=O)NCc1ccccc1 [LCS, lacosamide]
ED50 MES [1]: 9.2 mg/kg | ED50 6 Hz (32 mA) [2]: 5.3 mg/kg | ED50 6 Hz (44 mA) [3]: 6.9 mg/kg

CC(C)(C)c1ccc(NC(=O)N2CCN(c3ncccc3Cl)CC2)cc1 [BCTC, reference compound]
effect on capsaicin-induced hypothermia (body temperature, mice; 20 mg/kg with capsaicin 5 mg/kg i.p., p < 0.0001 at 15 and 30 min): alleviated the capsaicin-induced hypothermia | effect on body temperature, administered alone (body temperature, mice; 20 mg/kg, 15 min after injection, p < 0.05): caused a significant increase in body temperature

Cn1c(=O)c2c(ncn2C)n(C)c1=O [caffeine, reference compound]
permeability coefficient (Pe) [4]: 3.46 × 10^–6 cm/s

C=C(C)[C@@H]1CCC(C)=C[C@H]1c1c(O)cc(CCCCC)cc1O [CBD, cannabidiol]
inhibition at 100 µM (TRPV1 (VR1) (h)): 47.8% | ED50 MES [1]: 80.0 mg/kg | % inhibition of control specific binding (Na+ channel (site 2)): 94.9% | inhibition at 100 µM (CB1 (h)): 103% | % inhibition of control specific binding [5]: 58.0%
